{
  "source": "patent US8475862B2",
  "about": "“Isothiocyanate preservatives and methods of their use” (The Procter & Gamble Company, priority 2003, dated 2013)",
  "key": {"[1]": {"assay": "Moisture sensitivity test: isothiocyanate suspended in aqueous phosphate buffer, level measured by supercritical fluid chromatography", "type": "physicochemical", "conditions": "white mustard essential oil suspended in aqueous phosphate buffer, pH about 3.6, about 20-23° C.", "procedure": "As used herein, the term “moisture-sensitive” means that the isothiocyanate compound degrades in the presence of water. This degradation proceeds via a hydrolysis reaction, thereby leading to a reduction in level of the active isothiocyanate antimicrobial agent with time of storage in the presence of water. The method for determining moisture sensitivity is set forth in the Test Method section below. […]\nThese solutions are analyzed by supercritical fluid chromatography using the method described by Buskov, S. et al., “Supercritical fluid chromatography as a method of analysis for the determination of 4-hydroxybenzylglucosinolate degradation products,” Journal of Biochemical and Biophysical Methods, Vol. 43, pp 157-174 (2000) with the following modifications. […] The eluate is detected at 226 and 252 nm. […]\nMoisture-sensitive isothiocyanate compounds are identified by suspending the isothiocyanate containing material in an aqueous phosphate buffer (pH of about 3.6) at room temperature. […] The extraction procedure is repeated after 24 hours and the level of residual isothiocyanate compound is measured by supercritical fluid chromatography. […]"}, "[2]": {"tested_on": "four lactic acid spoilage bacteria (Lactobacillus fructivorans, L. fermentum, L. plantar and L. hilgardii)", "assay": "Ketchup spoilage challenge, plate counts of inoculated lactic acid bacteria", "type": "cell-based", "conditions": "250 CFU/gm inoculum, stored at 22° C.", "procedure": "(§1) Ketchup is an acid food with a pH of 3.5-3.8 that can be cold filled at 100±20° F. in PET bottles. The product is vulnerable during filling operation at the filler, susceptible for recontamination by adventitious spoilage microorganisms such as lactic acid bacteria (LAB) and acid and preservative tolerant yeasts (APRY).\n(§2) All natural tomato ketchup products were made, a first sample with sodium (ANK) and a second sample with reduced sodium (ANK-RS). Each sample was split, and to each about 150 ppm and 300 ppm 4-hydroxybenzyl isothiocyanate was added. The samples were further split (for a total of eight samples) and inoculated as follows. Microorganisms were inoculated into four samples with a cocktail consisting of four separate lactic acid spoilage bacteria (250 CFU/gm) such as Lactobacillus fructivorans, L. fermentum, L. plantar and L. hilgardii. The four remaining samples were inoculated with Zygosaccharomyces bailii—(150-200 CFU/gm) previously isolated from a ketchup spoilage incident.\n(§3) A summary of the samples is as follows: • 1: ANK—150 ppm 4HBITC—inoculated with four lactic acid bacteria • 2: ANK—150 ppm 4HBITC—inoculated with Z. bailii • 3: ANK—300 ppm 4HBITC—inoculated with four lactic acid bacteria • 4: ANK—300 ppm 4HBITC—inoculated with Z. bailii • 5: ANK-RS—150 ppm 4HBITC—inoculated with four lactic acid bacteria • 6: ANK-RS—150 ppm 4HBITC—inoculated with Z. bailii • 7: ANK-RS—300 ppm 4HBITC—inoculated with four lactic acid bacteria • 8: ANK-RS—300 ppm 4HBITC—inoculated with Z. bailii\n(§4) The inoculated ketchup samples were stored at 22° C. […] The lactic acid bacteria and yeasts counts were performed as described in FDA BAM manual. The plate counts were then used to identify the degree of microbial kill or stasis in the inoculated product. […] At 150 ppm, the declining trend was gradual taking 336 hours to non-detectable level for both ANK and ANK-RS. Un-inoculated controls grew to level of 1000-1500 CFU/gm. In the Z. bailii inoculated samples, counts were reduced to non-detectable level at 96 hours, both with and without 4-hydroxybenzyl isothiocyanate. However, there was no regrowth in the samples with 4-hydroxybenzyl isothiocyanate up to 336 hours (150 and 300 ppm). Regrowth was noticed around 96-108 hours ending at 1×10^6 CFU/gm in control samples without 4-hydroxybenzyl isothiocyanate."}, "Zygosaccharomyces bailii": {"tested_on": "Zygosaccharomyces bailii", "assay": "Ketchup spoilage challenge, plate counts of inoculated yeast", "type": "cell-based", "conditions": "22° C.; for regrowth of Z. bailii up to 336 hours: controls regrew around 96-108 hours", "procedure": "as §1, §2, §3\nas §4, with “However, there was no regrowth in the samples with 4-hydroxybenzyl isothiocyanate up to 336 hours (150 and 300 ppm). Regrowth was noticed around 96-108 hours ending at 1×10^6 CFU/gm in control samples without 4-hydroxybenzyl isothiocyanate.” left out"}},
  "data": [
    {"molecule": "Oc1ccc(CN=C=S)cc1", "note": "[4-hydroxybenzyl isothiocyanate]", "values": [
      {"measurement": "percent reduction in level of 4-hydroxybenzyl isothiocyanate after 24 hours", "setting": "[1]", "value": "about 72%"},
      {"measurement": "time until lactic acid bacteria counts reduced to non-detectable level", "setting": "[2]; ANK ketchup, 150 ppm", "value": 336, "unit": "h"},
      {"measurement": "time until lactic acid bacteria counts reduced to non-detectable level", "setting": "[2]; ANK ketchup, 300 ppm", "value": "≤ 96", "unit": "h"},
      {"measurement": "time until lactic acid bacteria counts reduced to non-detectable level", "setting": "[2]; ANK-RS (reduced sodium) ketchup, 150 ppm", "value": 336, "unit": "h"},
      {"measurement": "time until lactic acid bacteria counts reduced to non-detectable level", "setting": "[2]; ANK-RS (reduced sodium) ketchup, 300 ppm", "value": "≤ 168", "unit": "h"},
      {"measurement": "time at which Z. bailii counts reduced to non-detectable level", "setting": "Zygosaccharomyces bailii; 150-200 CFU/gm inoculum, same result with and without 4-hydroxybenzyl isothiocyanate", "value": 96, "unit": "h"},
      {"measurement": "regrowth of Z. bailii up to 336 hours", "setting": "Zygosaccharomyces bailii; 150 ppm", "value": "no regrowth"},
      {"measurement": "regrowth of Z. bailii up to 336 hours", "setting": "Zygosaccharomyces bailii; 300 ppm", "value": "no regrowth"}
    ]}
  ]
}
